Reference: US20240139290A1, “METHODS OF TREATING A CARDIOVASCULAR ISCHEMIC EVENT” (Radius Health, Inc., priority 2021, published 2024)
“Also recorded” adds a separate entry of the source.

Experiments:
HL-1 cardiomyocytes [1] = test: HL-1 cardiomyocyte viability (MTT assay) under normoxia or simulated ischemia-reperfusion; format: cell-based, murine
Procedure: HL-1 cardiomyocytes were grown to ˜80% confluence in 95% room air/5% CO2 at 37° C. in Claycomb medium supplemented with fetal bovine serum (10%), L-glutamine (2 mM), norepinephrine (0.1 mM), penicillin (100 U/mL) and streptomycin (100 μg/mL). The cardiomyocytes were then incubated for 24 hours with abaloparatide (0.1 nM, 1.0 nM, 10 nM, 100 nM) or vehicle control. At 24 hours after the onset of incubation, the cells were subjected to 2 hours of simulated ischemia (achieved by depletion of oxygen and nutrients), followed by 24 hours of reoxygenation. During simulated ischemia, Claycomb medium containing drug/placebo was replaced with drug-free hypoxia buffer at pH 6.6 (composed of NaCl ([…]), KCl (8 mM), KH2PO4 (1.2 mM), 1.25 mM MgSO4 (1.25 mM), CaCl2 (1.2 mM), NaHCO3 (6.25 mM), HEPES (20 mM), glucose (5.5 mM), 2-deoxy-D-glucose (20 mM), sodium lactate (5 mM): all ingredients from Sigma Aldrich, St. Louis, MO, USA) and the culture plates were sealed in a hermetic chamber with GasPak EZ Gas Generating Sachets (BD Biosciences, San Jose, CA, USA). Reoxygenation was achieved by removing the plates from the sealed chamber and exchanging the hypoxia buffer with serum-free Claycomb medium. Additional time- and treatment-matched normoxic cultures served as controls (n=4 independent replicates per group). Cell viability was quantified using the 3-(4,5-dimethythiazol-2-yl)-2,5-diphenyl tetrazolium bromide (MTT) assay.
At 24 hours after the onset of incubation, the cells were subjected to 2 hours of simulated ischemia (achieved by depletion of oxygen and nutrients), followed by 24 hours of reoxygenation. Additional time- and treatment-matched normoxic cultures served as controls. Cell viability was quantified using the 3-(4,5-dimethythiazol-2-yl)-2,5-diphenyl tetrazolium bromide (MTT) assay.
(§1) At 24 h after the onset of treatment, cells underwent 2 h of SI+10 min reoxygenation, while additional time- and treatment-matched normoxic cultures served as controls (n=3 independent replicates per group). At 10 min post-reoxygenation, cells were harvested and lysed in RIPA buffer containing 2 protease and phosphatase inhibitors. The lysates were centrifuged at 14,000×g for 15 min, and the resultant supernatant was collected and probed for the expression of ERK (total and phosphorylated: antibodies from Cell Signaling Technology Inc., Danvers, MA, USA), PI3 kinase/Akt (total and phosphorylated: Cell Signaling Technology Inc., Danvers, MA, USA) and GAPDH (Sigma Aldrich Inc., St. Louis, MO, USA) using standard methods Immunoreactive bands were identified by incubation with horseradish peroxidase (HRP)-conjugated secondary antibody, visualized using x-ray film, and quantified using the NIH ImageJ software. […] At 24 h after the onset of treatment, cells underwent either 2 h of SI+24 h reoxygenation or a time-matched period of normoxia (n=2 independent replicates per group). At 24 h following relief of SI, cell viability was quantified using the MTT assay as described in Example 1.
Twenty-four hours after the onset of treatment, cells underwent 2 hours of simulated ischemia followed by 24 hours of reoxygenation. Additional time- and treatment-matched normoxic cultures served as controls. Cell viability was quantified using the MTT assay.

ERK = test: Immunoblot of phospho-ERK in HL-1 cardiomyocytes (normoxia or simulated ischemia + 10 min reoxygenation); format: cell-based, murine; conditions: for phospho-ERK expression with co-administration of PD98059: 5 μM PD98059, control, abaloparatide- and PTHrP-treated groups
Procedure: as §1
HL-1 cardiomyocytes were treated as described in Example 5, but were harvested at 10 minutes post-reoxygenation, lysed, and probed for phospho- and total ERK expression as detailed in Example 5.

Akt = test: Immunoblot of phospho-Akt in HL-1 cardiomyocytes (normoxia or simulated ischemia + 10 min reoxygenation); format: cell-based, murine; conditions: 2 h simulated ischemia + 10 min reoxygenation; 10 nM; vs vehicle; Example 3, FIG. 3B
Procedure: as §1

[2] = Obaidi et al. 2010; cited from earlier work
[3] = human, in vivo, sc; cited from earlier work
HL-1 cardiomyocytes [4] = conditions: doxorubicin 2.5 μM for 24 hours; previously shown; cited from earlier work
[5] = clinical studies; cited from earlier work
[6] = simulated ischemia + 10 min reoxygenation, Example 6, FIG. 6B

## abaloparatide
HL-1 cardiomyocytes [1]; 2 h simulated ischemia + 24 h reoxygenation, 10 nM, Example 5, FIG. 5B
  HL-1 cell viability vs vehicle-controls: viability was better maintained
HL-1 cardiomyocytes [1]; 2 h simulated ischemia + 24 h reoxygenation, 10 and 100 nM, Example 4, FIG. 4B
  HL-1 cell viability vs vehicle-controls: viability was better-maintained
HL-1 cardiomyocytes [1]; 2 h simulated ischemia + 24 h reoxygenation, abaloparatide 0.1-100 nM, 24 h pre-incubation, Example 1, FIG. 1B
  HL-1 cell viability vs vehicle control: viability was better-maintained
HL-1 cardiomyocytes [1]; in vitro model of ischemia-reperfusion injury, summary statement
  efficacy of abaloparatide relative to PTHrP(1-36): slightly but significantly greater than that of PTHrP(1-36)
HL-1 cardiomyocytes [1]; in vitro model of lethal ischemia-reperfusion injury, summary statement
  viability of HL-1 cardiomyocyte cells: enhancement in viability
HL-1 cardiomyocytes [1]; normoxic conditions, abaloparatide 0.1-100 nM, 24 h incubation, Example 1, FIG. 1A
  HL-1 cell viability: no effect on HL-1 cell viability
HL-1 cardiomyocytes [1]; simulated ischemia-reperfusion, 10 nM peptide + 5 μM PD98059, Example 5, FIG. 5B
  protective effect on viability with co-administration of PD98059: attenuated by co-administration of PD98059; also recorded: attenuated the protective effect
HL-1 cardiomyocytes [1]; simulated ischemia-reperfusion, p<0.05 between groups, Example 4, FIG. 4B
  viability with 10 nM abaloparatide compared with other groups: greater than that achieved with 100 nM abaloparatide and 10 nM PTHrP(1-36)
HL-1 cardiomyocytes [1]; simulated ischemia-reperfusion, tested 0.1, 1.0, 10, 100 nM, Example 1, FIG. 1B
  concentration with greatest efficacy on viability: 10 nM
HL-1 cardiomyocytes [1]; summary statement on Examples 1-3
  HL-1 cardiomyocyte death caused by simulated ischemia-reperfusion: attenuated HL-1 cardiomyocyte death
ERK; 2 h simulated ischemia + 10 min reoxygenation, 10 nM, vs vehicle, Example 3, FIG. 3C
  expression of phospho-ERK (normalized to total ERK): augmented expression of phospho-ERK
ERK; simulated ischemia + 10 min reoxygenation, 10 nM, Example 6, FIG. 6B
  expression of phospho-ERK vs vehicle-controls: augmented expression phospho-ERK
ERK; [6]
  phospho-ERK expression with co-administration of PD98059: attenuated
Akt
  expression of phospho-Akt (normalized to GAPDH): better preservation of phospho-Akt
[2]
  anabolic activity: potent anabolic activity
  bone resorption: decreased bone resorption
  calcium-mobilizing potential: less calcium-mobilizing potential
[3]
  heart rate: modest and transient increases in heart rate
  heart rate relative to placebo: transient increases in heart rate
  incidence of palpitations relative to placebo: higher incidences of palpitations
  supine blood pressure: decreases in supine blood pressure

## COc1cccc2c1C(=O)c1c(O)c3c(c(O)c1C2=O)C[C@@](O)(C(=O)CO)C[C@@H]3O[C@H]1C[C@H](N)[C@H](O)[C@H](C)O1 [doxorubicin]
HL-1 cardiomyocytes [4]
  HL-1 cardiomyocytes killed: ~50%

## CC[C@H](C)[C@H](NC(=O)[C@H](CCC(=O)O)NC(=O)[C@H](CO)NC(=O)[C@@H](NC(=O)[C@@H](N)CO)C(C)C)C(=O)N[C@@H](CCC(N)=O)C(=O)N[C@@H](CC(C)C)C(=O)N[C@@H](CCSC)C(=O)N[C@@H](Cc1cnc[nH]1)C(=O)N[C@@H](CC(N)=O)C(=O)N[C@@H](CC(C)C)C(=O)NCC(=O)N[C@@H](CCCCN)C(=O)N[C@@H](Cc1cnc[nH]1)C(=O)N[C@@H](CC(C)C)C(=O)N[C@@H](CC(N)=O)C(=O)N[C@@H](CO)C(=O)N[C@@H](CCSC)C(=O)N[C@@H](CCC(=O)O)C(=O)N[C@@H](CCCN=C(N)N)C(=O)N[C@H](C(=O)N[C@@H](CCC(=O)O)C(=O)N[C@@H](Cc1c[nH]c2ccccc12)C(=O)N[C@@H](CC(C)C)C(=O)N[C@@H](CCCN=C(N)N)C(=O)N[C@@H](CCCCN)C(=O)N[C@@H](CCCCN)C(=O)N[C@@H](CC(C)C)C(=O)N[C@@H](CCC(N)=O)C(=O)N[C@@H](CC(=O)O)C(=O)N[C@H](C(=O)N[C@@H](Cc1cnc[nH]1)C(=O)N[C@@H](CC(N)=O)C(=O)N[C@@H](Cc1ccccc1)C(=O)O)C(C)C)C(C)C [teriparatide]
[5]
  orthostatic hypotension: transient episodes of symptomatic orthostatic hypotension
  palpitations: palpitations
  tachycardia: tachycardia

## COc1cccc(-c2cc(=O)c3ccccc3o2)c1N [PD98059]
ERK; [6]
  phospho-ERK expression with co-administration of PD98059: attenuated
